Experimental data published in US20240416143A1, “PHOTONIC ANTIMICROBIAL WOUND SURFACE DRESSING” (The General Hospital Corporation, priority 2021, published 2024).

Test system: P. aeruginosa biofilm
Test: Photoinactivation of 48-hour in vitro biofilms by adjuvant/antibiotic + antimicrobial blue light
Assay type: cell-based, Pseudomonas aeruginosa
Method: The bacterial suspension was grown in a shaking incubator overnight in BHI broth. Cells were collected by centrifugation at 4,000 rpm for 5 minutes and suspended in PBS at a density of 10^6 CFU/mL. Then, the biofilms were grown for 48 hours (unless otherwise specified) in 96-well microtiter plates as described previously [Ref. 27], with a renewal of the media every 24 hours. Following the 48-hour biofilm growth, fresh 200 μL of PBS with or without menadione in different concentrations were added to the wells and the biofilms were incubated in the dark at 25° C. for 1 hour: 0, 0.5, 1, and 2 μg/mL for MRSA USA300, AF0001, IQ0064; […]; and 0, 100, and 150 μg/mL for E. coli ATCC 25922. After that, the control and the menadione-treated biofilms were maintained without irradiation (“menadione/dark”). Simultaneously, the aBL was delivered to the other biofilm groups testing different power densities (50, 30, 15, and 10 mW/cm^2) while keeping the same radiant exposure of 250 J/cm^2. After the light exposure, the biofilms were carefully washed two times with PBS and 200 μL of PBS was added to each well. Then, the bacterial biofilms in each well were harvested by scratching with a sterile pipette tip and three wells of each group were pooled together in a 1.5 mL microcentrifuge tube. The total volume obtained, 600 μL (3 wells), was sonicated using a Branson 2510 Water Bath Sonicator (Marshall Scientific, LLC) for 5 minutes and the CFU was determined by 10-fold serial dilutions in PBS on BHI agar plates. CFU was counted after overnight incubation at 37° C. Experiments were performed in triplicate.
A bacterial suspension was grown in a shaking incubator overnight in BHI broth. Cells were collected by centrifugation at 4,000 rpm for 5 minutes and suspended in PBS at a density of 10^6 CFU/mL. Then, the biofilms were grown for 48 hours in 96-well microtiter plates with a renewal of the media every 24 hours. Following the 48-hour biofilm growth, fresh 200 μL of PBS with the tetracyclines minocycline, doxycycline, and demeclocycline in different concentrations were added to the wells and the biofilms were incubated in the dark at 25° C. for 1 hour: 0, 0.25, 0.5, and 1 μg/mL for minocycline; 0, 0.5, 1, and 2 μg/mL for doxycycline; and 0, 0.5, 1, and 2 for demeclocycline. After that, the control and the tetracycline-treated biofilms were maintained without irradiation (“menadione/dark”). […] The total volume obtained, 600 μL (3 wells), was sonicated using a Branson 2510 Water Bath Sonicator (Marshall Scientific, LLC) for 5 minutes and the CFU/mL was determined by 10-fold serial dilutions in PBS on BHI agar plates. CFU was counted after overnight incubation at 37° C.

SMILES: CC1=CC(=O)c2ccccc2C1=O [menadione, 2-methyl-1,4-naphthoquinone]
- biofilm reduction by menadione without irradiation (48 h biofilm, dark): < 1 log killing
- biofilm eradicated by menadione plus aBL (48 h biofilm, 100 μg/mL menadione + aBL 250 J/cm^2 (50 mW/cm^2)): 6.6 log10 CFU/mL
- potentiation of the effect of aBL by menadione (48 h in vitro biofilm, vs aBL alone): ~100 fold
